According to US10167262B2, “Herbicidal substituted 3-arylpyrazoles” (FMC CORPORATION, priority 2014, dated 2019):

What was measured:
Format in all cases: in vivo
[1] = test system: ragweed (common ragweed, Ambrosia elatior); assay: Test C pre-/postemergence greenhouse test, plant response rating 0-100
Procedure, shortened: (§1)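 Seeds were sown in a loam soil–sand blend and sprayed preemergence with test chemicals in a non-phytotoxic solvent mixture containing surfactant; postemergence plants in peat/vermiculite medium were treated at 2–18 cm (1- to 4-leaf stage). After 13 to 15 days in the greenhouse, injury was rated visually against untreated controls.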

corn (Zea mays) [2] = assay: as above
Procedure, shortened: as §1

[3] = test system: Italian ryegrass (Lolium multiflorum); assay: as above
Procedure, shortened: as §1

[4] = test system: velvetleaf (Abutilon theophrasti); assay: as above
Procedure, shortened: as §1

[5] = test system: pigweed (Amaranthus retroflexus); assay: as above
Procedure, shortened: as §1

[6] = test system: large (Lg) crabgrass (Digitaria sanguinalis); assay: Test A pre-/postemergence greenhouse herbicide test, visual injury rating 0-100
Procedure, shortened: (§2)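 Greenhouse plants received compound either as directed soil spray at planting or as postemergence spray at the one- to two-leaf stage (2–10 cm). Evaluated after about 10 days by visual comparison with untreated controls.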

[7] = test system: morningglory (Ipomoea spp.); assay: as above
Procedure, shortened: as §2

corn (Zea mays) [8] = assay: as above
Procedure, shortened: as §2

[9] = test system: barnyardgrass (Echinochloa crus-galli); assay: as above
Procedure, shortened: as §2

[10] = test system: velvetleaf (Abutilon theophrasti); assay: as above
Procedure, shortened: as §2

[11] = test system: wheat (Triticum aestivum); assay: as above
Procedure, shortened: as §2

[12] = test system: pigweed (Amaranthus retroflexus); assay: as above
Procedure, shortened: as §2

[13] = test system: giant foxtail (Setaria faberii); assay: as above
Procedure, shortened: as §2

[14] = Postemergence, 250 g ai/ha, scale 0 to 100
[15] = Postemergence, 500 g ai/ha, scale 0 to 100
[16] = Preemergence, 0 to 100 scale (0 no effect, 100 complete control), rate 500 g ai/ha per head r3, sub-head of this section not shown

O=C(c1ccccc1)c1cn(S(=O)(=O)CC(F)(F)F)nc1-c1cc(Cl)cc(Cl)c1 [Compound 3]
5: Plant response rating (0 to 100), Corn (corn (Zea mays) [2]; Postemergence, 125 g ai/ha) | Plant response rating, Corn (corn (Zea mays) [2]; [14]) | Plant response rating, Corn (corn (Zea mays) [2]; [15])
0: Plant response rating, Ragweed ([1]; Preemergence, 62 g ai/ha) | Plant response rating, Ragweed ([1]; Preemergence, 125 g ai/ha) | Plant response rating (0 to 100), Corn (corn (Zea mays) [2]; Postemergence, 62 g ai/ha) | Plant response rating, Corn (corn (Zea mays) [2]; Preemergence, 62 g ai/ha) | Plant response rating, Corn (corn (Zea mays) [2]; Preemergence, 125 g ai/ha) | Plant response rating, Corn (corn (Zea mays) [2]; Preemergence, 250 g ai/ha) | Plant response rating, Corn (corn (Zea mays) [2]; Preemergence, 500 g ai/ha) | Plant response rating (0 to 100), Ryegrass, Italian ([3]; Postemergence, 62 g ai/ha) | Plant response rating (0 to 100), Ryegrass, Italian ([3]; Postemergence, 125 g ai/ha) | Plant response rating, Ryegrass, Italian [3, 14] | Plant response rating, Ryegrass, Italian [3, 15] | Plant response rating, Ryegrass, Italian ([3]; Preemergence, 62 g ai/ha) | Plant response rating, Ryegrass, Italian ([3]; Preemergence, 125 g ai/ha) | Plant response rating, Ryegrass, Italian ([3]; Preemergence, 250 g ai/ha) | Plant response rating, Ryegrass, Italian ([3]; Preemergence, 500 g ai/ha) | Plant response rating, Ryegrass, Italian [3, 16] | Plant response rating (0 to 100 scale), Crabgrass, Large ([6]; Postemergence, 125 g ai/ha) | Plant response rating (0 to 100 scale), Crabgrass, Large ([6]; Postemergence, 500 g ai/ha) | Crabgrass, Large plant response rating (0 = no effect, 100 = complete control) ([6]; Preemergence, 125 g ai/ha) | Plant response rating (0 to 100 scale), Crabgrass, Large ([6]; Preemergence, 500 g ai/ha) | Plant response rating (0 to 100 scale), Morningglory ([7]; Postemergence, 125 g ai/ha) | Plant response rating (0 to 100 scale), Morningglory ([7]; Postemergence, 500 g ai/ha) | Morningglory plant response rating (0 = no effect, 100 = complete control) ([7]; Preemergence, 125 g ai/ha) | Plant response rating (0 to 100 scale), Morningglory ([7]; Preemergence, 500 g ai/ha) | Plant response rating (0 to 100 scale), Corn (corn (Zea mays) [8]; Postemergence, 125 g ai/ha) | Plant response rating (0 to 100 scale), Corn (corn (Zea mays) [8]; Postemergence, 500 g ai/ha) | Corn plant response rating (0 = no effect, 100 = complete control) (corn (Zea mays) [8]; Preemergence, 125 g ai/ha) | Plant response rating (0 to 100 scale), Corn (corn (Zea mays) [8]; Preemergence, 500 g ai/ha) | Plant response rating (0 to 100 scale), Barnyardgrass ([9]; Postemergence, 125 g ai/ha) | Plant response rating (0 to 100 scale), Barnyardgrass ([9]; Postemergence, 500 g ai/ha) | Barnyardgrass plant response rating (0 = no effect, 100 = complete control) ([9]; Preemergence, 125 g ai/ha) | Plant response rating (0 to 100 scale), Barnyardgrass ([9]; Preemergence, 500 g ai/ha) | Velvetleaf plant response rating (0 = no effect, 100 = complete control) ([10]; Preemergence, 125 g ai/ha) | Plant response rating (0 to 100 scale), Wheat ([11]; Postemergence, 125 g ai/ha) | Plant response rating (0 to 100 scale), Wheat ([11]; Postemergence, 500 g ai/ha) | Wheat plant response rating (0 = no effect, 100 = complete control) ([11]; Preemergence, 125 g ai/ha) | Plant response rating (0 to 100 scale), Wheat ([11]; Preemergence, 500 g ai/ha) | Plant response rating (0 to 100 scale), Foxtail, Giant ([13]; Postemergence, 125 g ai/ha) | Plant response rating (0 to 100 scale), Foxtail, Giant ([13]; Postemergence, 500 g ai/ha) | Foxtail, Giant plant response rating (0 = no effect, 100 = complete control) ([13]; Preemergence, 125 g ai/ha) | Plant response rating (0 to 100 scale), Foxtail, Giant ([13]; Preemergence, 500 g ai/ha)
80: Plant response rating (0 to 100 scale), Pigweed ([12]; Postemergence, 125 g ai/ha) | Plant response rating (0 to 100 scale), Pigweed ([12]; Preemergence, 500 g ai/ha)
95: Plant response rating, Ragweed ([1]; Preemergence, 500 g ai/ha) | Plant response rating (0 to 100), Pigweed ([5]; Postemergence, 125 g ai/ha)
30: Plant response rating, Pigweed ([5]; Preemergence, 62 g ai/ha)
20: Plant response rating (0 to 100), Ragweed ([1]; Postemergence, 62 g ai/ha) | Plant response rating, Velvetleaf [4, 16]
50: Plant response rating, Velvetleaf ([4]; Preemergence, 62 g ai/ha) | Plant response rating (0 to 100 scale), Velvetleaf ([10]; Preemergence, 500 g ai/ha)
100: Plant response rating, Velvetleaf ([4]; Preemergence, 500 g ai/ha) | Plant response rating, Pigweed [5, 14] | Plant response rating, Pigweed ([5]; Preemergence, 125 g ai/ha) | Plant response rating, Pigweed ([5]; Preemergence, 250 g ai/ha) | Plant response rating, Pigweed ([5]; Preemergence, 500 g ai/ha) | Plant response rating (0 to 100 scale), Velvetleaf ([10]; Postemergence, 500 g ai/ha) | Plant response rating (0 to 100 scale), Pigweed ([12]; Postemergence, 500 g ai/ha)
25: Plant response rating (0 to 100), Ragweed ([1]; Postemergence, 125 g ai/ha)
55: Plant response rating, Velvetleaf ([4]; Preemergence, 250 g ai/ha)
70: Plant response rating, Ragweed ([1]; Preemergence, 250 g ai/ha) | Plant response rating (0 to 100), Velvetleaf ([4]; Postemergence, 62 g ai/ha) | Plant response rating (0 to 100), Velvetleaf ([4]; Postemergence, 125 g ai/ha)
65: Plant response rating, Ragweed [1, 14] | Plant response rating, Ragweed [1, 15]
90: Plant response rating (0 to 100 scale), Velvetleaf ([10]; Postemergence, 125 g ai/ha)
35: Plant response rating, Ragweed [1, 16]
60: Pigweed plant response rating (0 = no effect, 100 = complete control) ([12]; Preemergence, 125 g ai/ha)
75: Plant response rating, Velvetleaf [4, 14]
85: Plant response rating, Velvetleaf [4, 15] | Plant response rating (0 to 100), Pigweed ([5]; Postemergence, 62 g ai/ha)

Fc1cccc(NN=C(c2ccccc2)c2c[nH]nc2-c2cc(Cl)cc(Cl)c2)c1 [Compound 58]
40: Plant response rating (0 to 100), Ragweed ([1]; Postemergence, 125 g ai/ha)
100: Plant response rating (0 to 100), Pigweed ([5]; Postemergence, 62 g ai/ha) | Plant response rating (0 to 100), Pigweed ([5]; Postemergence, 125 g ai/ha) | Plant response rating, Pigweed [5, 14] | Plant response rating, Pigweed [5, 15] | Plant response rating (0 to 100 scale), Pigweed ([12]; Preemergence, 1000 g ai/ha)
50: Plant response rating, Ragweed [1, 14]
90: Plant response rating (0 to 100 scale), Velvetleaf ([10]; Postemergence, 1000 g ai/ha) | Plant response rating (0 to 100 scale), Velvetleaf ([10]; Preemergence, 1000 g ai/ha) | Plant response rating (0 to 100 scale), Pigweed ([12]; Postemergence, 1000 g ai/ha)
60: Plant response rating (0 to 100), Velvetleaf ([4]; Postemergence, 62 g ai/ha)
5: Plant response rating (0 to 100), Corn (corn (Zea mays) [2]; Postemergence, 125 g ai/ha) | Plant response rating, Corn (corn (Zea mays) [2]; [14]) | Plant response rating, Corn (corn (Zea mays) [2]; [15])
65: Plant response rating, Ragweed [1, 15] | Plant response rating (0 to 100), Velvetleaf ([4]; Postemergence, 125 g ai/ha)
10: Plant response rating (0 to 100), Ragweed ([1]; Postemergence, 62 g ai/ha)
75: Plant response rating, Velvetleaf [4, 15]
70: Plant response rating, Velvetleaf [4, 14]
0: Plant response rating (0 to 100), Corn (corn (Zea mays) [2]; Postemergence, 62 g ai/ha) | Plant response rating (0 to 100), Ryegrass, Italian ([3]; Postemergence, 62 g ai/ha) | Plant response rating (0 to 100), Ryegrass, Italian ([3]; Postemergence, 125 g ai/ha) | Plant response rating, Ryegrass, Italian [3, 14] | Plant response rating, Ryegrass, Italian [3, 15] | Plant response rating (0 to 100 scale), Crabgrass, Large ([6]; Postemergence, 1000 g ai/ha) | Plant response rating (0 to 100 scale), Crabgrass, Large ([6]; Preemergence, 1000 g ai/ha) | Plant response rating (0 to 100 scale), Morningglory ([7]; Postemergence, 1000 g ai/ha) | Plant response rating (0 to 100 scale), Morningglory ([7]; Preemergence, 1000 g ai/ha) | Plant response rating (0 to 100 scale), Corn (corn (Zea mays) [8]; Postemergence, 1000 g ai/ha) | Plant response rating (0 to 100 scale), Corn (corn (Zea mays) [8]; Preemergence, 1000 g ai/ha) | Plant response rating (0 to 100 scale), Barnyardgrass ([9]; Postemergence, 1000 g ai/ha) | Plant response rating (0 to 100 scale), Barnyardgrass ([9]; Preemergence, 1000 g ai/ha) | Plant response rating (0 to 100 scale), Wheat ([11]; Postemergence, 1000 g ai/ha) | Plant response rating (0 to 100 scale), Wheat ([11]; Preemergence, 1000 g ai/ha) | Plant response rating (0 to 100 scale), Foxtail, Giant ([13]; Postemergence, 1000 g ai/ha) | Plant response rating (0 to 100 scale), Foxtail, Giant ([13]; Preemergence, 1000 g ai/ha)
